Six compounds from publication PMC3408453, “A Foldamer-Dendrimer Conjugate Neutralizes Synaptotoxic β-Amyloid Oligomers” (PLoS ONE, 2012) can be followed below.

Experiment [1] concerns the target T1, Aβ oligomers (Homo sapiens, UniProt P05067).
T1 construct: a depsipeptide derivative of Aβ(1–42) was utilized; made in house; host or cells: chemical peptide synthesis (no expression host)
Briefly: Isothermal titration calorimetry (ITC) with Aβ oligomers. The format is binding. As for the experimental part:
(§1) Binding of 7 to the Aβ oligomers was monitored by means of isothermal titration calorimetry (ITC). […] The titrations were run at 288 K in order to improve the signal to noise ratio, and just above the precipitation limit as the ITC method is sensitive to the thermal noise caused by the stirring of large particles. […] These values strongly supported tight binding between the Aβ oligomer species and 7.
Isothermal titrations were performed with a Microcal VP-ITC microcalorimeter. The binding experiments were performed in PBS pH 7.4. The buffer solution was degassed. The concentrations of the ligands and Aβ were corrected for the material content. In individual titrations, 10 μL of ligand was injected from the computer-controlled 300-μL microsyringe at intervals of 300 s into the Aβ oligomer solution dissolved in the same buffer as the ligand. The microsyringe stirring was set to 295 rpm. All measurements were made at 288 K. The Aβ concentrations in the cell were either 72 μM or 36 μM, and the concentrations of 7 were 175 μM and 222 μM respectively. The total ligand concentration was set in the syringe so that the titration stopped when the precipitation became excessive. Control experiments were performed by injecting the ligand into a cell containing buffer with no target, and the heats of dilution were subtracted from those measured in the presence of Aβ. Titrations were also performed with buffer in the syringe and Aβ oligomer sample in the cell to check for the heat response of Aβ dilution itself. The dilution heat of the Aβ oligomer samples was constant and negligible. Since the target is inherently inhomogeneous, and an a priori model of the binding events is not available,. the experimental data were fitted to the two independent site binding model by using a nonlinear least-squares procedure, with ΔHb, ΔHb', Ka, Ka' (association constants), N and N' (number of binding sites for monomer), as adjustable parameters. The exothermic peaks appearing after the fully precipitated phase was reached, were omitted from the regression.
(Isothermal titration calorimetry measures the heat released or taken up as one component is titrated into another.)

Experiment [2] has as its system LTP in mouse hippocampal slices impaired by Aβ(1–42) oligomers. Briefly: Ex vivo hippocampal slice LTP electrophysiology. The experiment is classed as cell-based. The source says: We investigated whether 7 could protect against the synaptic plasticity damage caused by Aβ(1–42) oligomers by using a hippocampus slice LTP model. LTP, a correlate of learning and memory has been repeatedly shown to be impaired by Aβ(1–42) oligomers. As negative control, substance 11 was applied. The experimenters were blind to the compounds tested.
These observations indicate the significant protective effect of 7 (Figure 12D). To test the effects of valency, LTP experiments were repeated with 8 under the same conditions.
Via standard procedures, 350-µm-thick transverse hippocampal slices were prepared from the brain of 7-months-old mice (CD1, Animal Breeding Facility, University of Szeged) with a McIlwain tissue chopper (Campden Instruments, Loughborough, UK). Slices were incubated in standard artificial cerebrospinal fluid (ACSF) at ambient temperature for 60 min, during constant gassing with 95% O2–5% CO2. The ACSF contained (mM): NaCl, 130; KCl, 3.5; CaCl2, 2; MgCl2, 2; NaH2PO4, 0.96; NaHCO3, 24; and D-glucose, 10 (pH 7.4). Individual slices were transferred to a 3D-MEA chip with 60 tip-shaped and 60-μm-high electrodes spaced at 100 μm (Ayanda Biosystems, S.A., Lausanne, Switzerland). The slice was continuously perfused with oxygenated ACSF (1.5 ml min^−1 at 34 °C) containing 720 nM Aβ(1–42) oligomers and/or 950 nM ligand throughout the recording session. Data were recorded with a standard, commercially available MEA setup (Multi Channel Systems MCS GmbH, Reutlingen, Germany). The Schaffer-collateral was stimulated by injecting a biphasic current waveform (−100/+100 μs) through one selected electrode at 0.033 Hz. Care was taken to choose the stimulating electrode in the same region from one slice to the other. The peak-to-peak amplitudes of fEPSPs at the stratum pyramidale and stratum radiatum of CA1 were analyzed. After a 30-min incubation period, the threshold and the maximum of stimulation intensity for evoke responses was determined. To evoke responses, 30% of the maximal stimulation intensity was used. LTP was induced by applying a theta-burst stimulation (TBS) pattern at the maximal stimulation intensity. The TBS comprised four trains administered at 20-s intervals with 10 bursts given at 5 Hz per train and 4 pulses at 100 Hz per burst. Statistical analysis was carried out by using two-tailed Student's t-test. For representative raw data see Figure S12.

For experiment [3], the target named is T1, Aβ oligomers. Briefly: Ligand-induced precipitation during ITC titration, followed by DLS. As to conditions: 72 μM Aβ oligomer. As to the method: as §1
For DLS measurements, 500 µL Aβ(1–42) solution (c = 72 µM) was prepared in PBS, and placed in a low–volume sizing cell. Size distribution was measured at 25°C on a Malvern Zetasizer Nano ZS Instrument (Malvern Instruments Ltd. Worcestershire, UK) equipped with a He-Ne laser (633 nm) by means of Non-Invasive Back Scatter (NIBS®) technology, which involves detection of the scattered light at an angle of 173°. A titration routine was formulated consisting of 12 independent measurements with a 2-min delay after each. The calculated amount of 7 solution was added to the Aβ after every second measurement. During the titration, the molar quantity of 7 varied between 0–35 µM. For a single measurement, the correlation function and distribution of the apparent hydrodynamic diameter (dh) over the scattered intensity of the particles were determined on the basis of 14 scans. […]

The mark [4] stands for this setting: 72 μM Aβ oligomer in cell, 288 K, PBS pH 7.4, read-out: KD (ITC; first binding step for 7, single stage for the others).
Where [5] appears, read: read-out: KD (ITC), given as bound, 72 μM Aβ oligomer, 288 K.
[6] abbreviates: read-out: KD (ITC; first binding step for 7, single stage for the others), 72 μM Aβ oligomer in cell, 288 K, PBS pH 7.4.

“Also recorded” adds a separate entry of the source. Read-outs that look alike come from different tables or passages of the source. Ends that are not written are not given here. Bounds are passed on as bounds.

“11: 6 coupled to the G0-PAMAM template; negative control with Gly7 tentacles (GGGGGGGC-NH2; not fully specified (residue 8); also: coupled to tetravalent G0-PAMAM template) [Compound 11]”: in the experiment with Aβ oligomers [1] (72 μM Aβ oligomer), the “Tight binding to the Aβ oligomer species in ITC (in words)” value (“Tight binding to the Aβ oligomer species” below) is reported as “the curve fitting did not converge; also recorded: did not reveal any tight binding”. The “LTP (potentiation) with Aβ(1–42) oligomers and ligand together” value in experiment [2] (720 nM Aβ(1–42) oligomers + 950 nM ligand, 180 min after LTP induction, mean ±SEM) is listed as 130±3%. Further, in experiment [2] (950 nM ligand, no Aβ oligomers, mean ±SEM), the “LTP (potentiation) with ligand alone” value was 200±14%.

As to `N=C(N)NCCC[C@@H](CC(=O)N[C@H]1CCCC[C@@H]1C(=O)N[C@H]1CCCC[C@@H]1C(=O)N[C@@H](CC(=O)O)CC(=O)N[C@H]1CCCC[C@@H]1C(N)=O)NC(=O)[C@H]1CCCC[C@@H]1N` [Compound 1], the Kd (commonly the concentration at which binding is half-saturated) was 2380 ± 214 nM at Aβ oligomers [1] (setting [4]) and above 2000 nM on Aβ oligomers [1] (72 μM Aβ oligomer, 288 K, read-out: KD (ITC), given as bound).

`N=C(N)NCCC[C@@H](CC(=O)N[C@H]1CCCC[C@@H]1C(=O)N[C@H]1CCCC[C@@H]1C(=O)N[C@@H](CC(=O)O)CC(=O)N[C@H]1CCCC[C@@H]1C(=O)NCC(=O)NCC(=O)N[C@@H](CSC1CC(=O)N(CCCCN2C(=O)CC(SC[C@H](NC(=O)CNC(=O)CNC(=O)[C@H]3CCCC[C@@H]3NC(=O)C[C@H](CC(=O)O)NC(=O)[C@H]3CCCC[C@@H]3NC(=O)[C@H]3CCCC[C@@H]3NC(=O)C[C@H](CCCNC(=N)N)NC(=O)[C@H]3CCCC[C@@H]3N)C(N)=O)C2=O)C1=O)C(N)=O)NC(=O)[C@H]1CCCC[C@@H]1N` (stereo partly drawn) [Compound 8]: on Aβ oligomers [1] (setting [4]), the Kd worked out at 721 ± 120 nM. Besides, the “ΔHb (ITC; first binding step for 7, single stage for 8)” value at Aβ oligomers [1] (72 μM Aβ oligomer, 288 K) came out at 1.1 ± 0.12 kcal/mol. In addition, the “Rescue of LTP from toxic Aβ oligomers (in words)” value in experiment [2] (720 nM Aβ(1–42) oligomers + 950 nM ligand) was “No rescue from the toxic Aβ oligomers was observed”. The “Concentration-dependent precipitation of Aβ oligomers during titration (ITC/DLS)” value on Aβ oligomers [3] is listed as “Neither 8 nor 1 led to concentration-dependent precipitation”.

As for `NC(=O)[C@H](CSC1CC(=O)N(CCC(=O)NCCNC(=O)CCN(CCC(=O)NCCNC(=O)CCN2C(=O)CC(SC[C@H](NC(=O)CNC(=O)CNC(=O)[C@H]3CCCC[C@@H]3NC(=O)C[C@H](CO)NC(=O)[C@H]3CCCC[C@@H]3NC(=O)[C@H]3CCCC[C@@H]3NC(=O)C[C@H](CO)NC(=O)[C@H]3CCCC[C@@H]3N)C(N)=O)C2=O)CCN(CCC(=O)NCCNC(=O)CCN2C(=O)CC(SC[C@H](NC(=O)CNC(=O)CNC(=O)[C@H]3CCCC[C@@H]3NC(=O)C[C@H](CO)NC(=O)[C@H]3CCCC[C@@H]3NC(=O)[C@H]3CCCC[C@@H]3NC(=O)C[C@H](CO)NC(=O)[C@H]3CCCC[C@@H]3N)C(N)=O)C2=O)CCC(=O)NCCNC(=O)CCN2C(=O)CC(SC[C@H](NC(=O)CNC(=O)CNC(=O)[C@H]3CCCC[C@@H]3NC(=O)C[C@H](CO)NC(=O)[C@H]3CCCC[C@@H]3NC(=O)[C@H]3CCCC[C@@H]3NC(=O)C[C@H](CO)NC(=O)[C@H]3CCCC[C@@H]3N)C(N)=O)C2=O)C1=O)NC(=O)CNC(=O)CNC(=O)[C@H]1CCCC[C@@H]1NC(=O)C[C@H](CO)NC(=O)[C@H]1CCCC[C@@H]1NC(=O)[C@H]1CCCC[C@@H]1NC(=O)C[C@H](CO)NC(=O)[C@H]1CCCC[C@@H]1N` (stereo partly drawn) [Compound 9], the “Tight binding to the Aβ oligomer species” value on Aβ oligomers [1] (72 μM Aβ oligomer) was “did not reveal any tight binding”. Also, on Aβ oligomers [1] (72 μM Aβ oligomer, 288 K), the “N (ITC stoichiometry, number of binding sites for monomer; first or single stage)” value was 0.03. Moreover, the Kd at Aβ oligomers [1] (setting [5]) is above 2000 nM; on Aβ oligomers [1] (setting [6]), 2240 ± 198 nM.

Take `N=C(N)NCCC[C@@H](CC(=O)N[C@H]1CCCC[C@@H]1C(=O)N[C@@H](CC(=O)O)CC(=O)N[C@H]1CCCC[C@@H]1C(=O)N[C@H]1CCCC[C@@H]1C(=O)NCC(=O)NCC(=O)N[C@@H](CSC1CC(=O)N(CCC(=O)NCCNC(=O)CCN(CCC(=O)NCCNC(=O)CCN2C(=O)CC(SC[C@H](NC(=O)CNC(=O)CNC(=O)[C@H]3CCCC[C@@H]3NC(=O)[C@H]3CCCC[C@@H]3NC(=O)C[C@H](CC(=O)O)NC(=O)[C@H]3CCCC[C@@H]3NC(=O)C[C@H](CCCNC(=N)N)NC(=O)[C@H]3CCCC[C@@H]3N)C(N)=O)C2=O)CCN(CCC(=O)NCCNC(=O)CCN2C(=O)CC(SC[C@H](NC(=O)CNC(=O)CNC(=O)[C@H]3CCCC[C@@H]3NC(=O)[C@H]3CCCC[C@@H]3NC(=O)C[C@H](CC(=O)O)NC(=O)[C@H]3CCCC[C@@H]3NC(=O)C[C@H](CCCNC(=N)N)NC(=O)[C@H]3CCCC[C@@H]3N)C(N)=O)C2=O)CCC(=O)NCCNC(=O)CCN2C(=O)CC(SC[C@H](NC(=O)CNC(=O)CNC(=O)[C@H]3CCCC[C@@H]3NC(=O)[C@H]3CCCC[C@@H]3NC(=O)C[C@H](CC(=O)O)NC(=O)[C@H]3CCCC[C@@H]3NC(=O)C[C@H](CCCNC(=N)N)NC(=O)[C@H]3CCCC[C@@H]3N)C(N)=O)C2=O)C1=O)C(N)=O)NC(=O)[C@H]1CCCC[C@@H]1N` (stereo partly drawn) [Compound 10]: the “Tight binding to the Aβ oligomer species” value on Aβ oligomers [1] (72 μM Aβ oligomer) is recorded as “did not reveal any tight binding”. The “N (ITC stoichiometry, number of binding sites for monomer; first or single stage)” value on Aβ oligomers [1] (72 μM Aβ oligomer, 288 K) was 0.10. Moreover, the Kd at Aβ oligomers [1] (setting [5]) was above 2000 nM; on Aβ oligomers [1] (setting [6]) it was 2750 ± 301 nM.

As for “Aβ(1–42) oligomer: synaptotoxic Aβ(1–42) oligomers prepared from Ser26 depsipeptide iso-Aβ(1–42) at pH 7.4 [reference compound]”, the “LTP (potentiation) with Aβ(1–42) oligomer alone” value in experiment [2] (720 nM Aβ(1–42) oligomer, untreated slices 175±5%) is listed as 128±5%.
